Columns and labels:
Male NMRI mice = assay: Mouse tetrad model (in-vivo bioassay for cannabinoid activity: hot plate, hypothermia, catalepsy, sedation); settings: 5 mg/kg i.v.
Text: II. In-vivo bioassay system for determination of cannabinoid activity
Substances with affinity for cannabinoid receptors are known to produce a wide range of pharmacological effects. It is also known that intravenous administration of a substance with affinity for cannabinoid receptors in mice produces analgesia , hypothermia, sedation and catalepsy. Individually, none of these effects can be considered as proof that a tested substance has affinity for cannabinoid-receptors, since all of these effects are common for various classes of centrally active agents. However, substances, which show all of these effects, i.e. substances that are active in this so-called tetrad model are considered to have affinity for the cannabinoid receptors. It has further been shown that cannabinoid receptor antagonists are higly effective in blocking the effects of a cannabinoid agonist in the mouse tetrad model.
The tetrad model is described, for example, in the publication of A. C. Howlett et al, International Union of Pharmacology XXVII. Classification of Cannabinoid Receptors, Pharmacol Rev 54, 161-202 , 2002 and David R. Compton et al., "In-vivo Characterization of a Specific Cannabinoid Receptor Antagonist (SR141716A) :Inhibition of Tetrahydrocannbinol- induced Responses and Apparent Agonist Activity", J. Pharmacol. Exp. Ther. 277 , 2, 586-594, 1996. […]
Before testing in the behavioral procedures given below, mice are acclimatized to the experimental setting. Pre-Treatment control values are determined for analgesia hot plate latency (in seconds), rectal temperature, sedation and catalepsy.
In order to determine the agonistic activty of the substance to be tested, the mice are injected intravenously with the substance to be tested or the vehicle alone. 15 minutes after injection, latency in hot plate analgesia is measured.
Rectal temperature, sedation and catalepsy are measured 20 minutes after injection.
In order to determine the antagonistic activity the identical procedure is used as for the determination of the agonistic effects, but with the difference that the substance to be evaluated for its antagonistic activity is injectected 5 minutes before the intravenous injection of 1.25 mg/kg Win-55,212 a known cannabinoid-receptor agonist.
The hot plate analgesia is determined according to the method described in Woolfe D. et al. "The evaluation of analgesic action of pethidine hydrochloride (Demerol)", J. Pharmacol. Exp. Ther. 80, 300-307,1944.
The mice are placed on a hot plate (Harvard Analgesimeter) at 55 ± 0.5 °C until they show a painful sensation by licking their paws or jumping and the time for these sensations to occur is recorded. This reading is considered the basal value (B). […]
The degree of analgesia is calculated from the formula : […]

Herg channel = Herg channel (Homo sapiens, UniProt Q12809); assay: Herg channel affinity; format: binding; settings: general statement, no method or data given
Herg channel, sequence (Q12809 whole entry): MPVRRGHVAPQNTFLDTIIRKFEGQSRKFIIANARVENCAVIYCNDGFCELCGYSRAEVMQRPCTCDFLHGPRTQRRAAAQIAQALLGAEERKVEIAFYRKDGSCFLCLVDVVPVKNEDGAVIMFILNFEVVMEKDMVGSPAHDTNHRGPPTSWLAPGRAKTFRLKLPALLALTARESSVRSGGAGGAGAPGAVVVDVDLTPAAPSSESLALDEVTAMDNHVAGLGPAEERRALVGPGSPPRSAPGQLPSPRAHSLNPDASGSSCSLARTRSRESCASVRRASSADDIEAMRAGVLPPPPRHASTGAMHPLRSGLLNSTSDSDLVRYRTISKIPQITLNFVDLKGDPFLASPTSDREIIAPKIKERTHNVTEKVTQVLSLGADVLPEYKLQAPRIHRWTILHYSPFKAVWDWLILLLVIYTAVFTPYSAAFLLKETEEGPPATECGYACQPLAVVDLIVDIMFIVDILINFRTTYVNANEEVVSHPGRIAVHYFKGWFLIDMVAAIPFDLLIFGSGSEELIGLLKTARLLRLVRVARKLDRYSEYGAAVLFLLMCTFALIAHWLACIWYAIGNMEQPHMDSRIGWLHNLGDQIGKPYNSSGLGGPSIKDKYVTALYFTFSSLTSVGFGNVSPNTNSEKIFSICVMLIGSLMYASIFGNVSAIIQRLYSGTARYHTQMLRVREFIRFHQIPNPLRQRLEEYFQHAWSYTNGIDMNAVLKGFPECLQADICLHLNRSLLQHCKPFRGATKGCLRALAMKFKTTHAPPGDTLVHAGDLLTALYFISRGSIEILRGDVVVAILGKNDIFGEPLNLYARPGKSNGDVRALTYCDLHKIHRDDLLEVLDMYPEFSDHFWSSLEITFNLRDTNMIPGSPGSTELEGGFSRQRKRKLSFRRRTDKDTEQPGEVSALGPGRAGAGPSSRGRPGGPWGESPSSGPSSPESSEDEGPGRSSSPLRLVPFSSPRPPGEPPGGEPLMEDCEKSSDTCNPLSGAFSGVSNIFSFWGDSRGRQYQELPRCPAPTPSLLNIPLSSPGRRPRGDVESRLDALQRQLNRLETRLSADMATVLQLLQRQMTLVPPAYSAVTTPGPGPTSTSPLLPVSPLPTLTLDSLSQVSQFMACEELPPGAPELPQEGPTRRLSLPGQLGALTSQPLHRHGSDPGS

| SMILES | Agonistic effect A: Hot-Plate test (Male NMRI mice) | Agonistic effect B: Hypothermia (Male NMRI mice) | Agonistic effect C: Catalepsy (Male NMRI mice) | Agonistic effect D: Sedation (Male NMRI mice) | Herg channel affinity (Herg channel) |
| --- | --- | --- | --- | --- | --- |
| O=C(NN1CCCCC1)C1=NN(c2ccc(Cl)cc2Cl)C(c2ccc(Cl)cc2)C1 (centres unmarked) [Example 1, N-piperidinyl-5-(4-chlorophenyl)-1-(2,4-dichlorophenyl)-4,5-dihydro-1H-pyrazole-3-carboxamide] | 0 | 0 | 0 | 0 |  |
| O=C(NN1CCCCC1)C1=NN(c2ccc(Cl)cc2Cl)C(c2ccc(Cl)cc2)C1 (stereo not drawn) [β-Polymorph, β-Polymorph of N-piperidinyl-5-(4-chlorophenyl)-1-(2,4-dichlorophenyl)-4,5-dihydro-1H-pyrazole-3-carboxamide] |  |  |  |  | relatively weak |
